SMILES strings stand for the structures. Bounds are passed on as bounds.

Experiment [1] deals with HACAT keratinocytes. Kind of experiment: Inhibition of TGFa- or EGF-specific proliferation of HACAT keratinocytes (3H-thymidine incorporation). In kind it is cell-based. Conditions: test 1: HaCaT cells stimulated with recombinant human TGFa or EGF, two days. Here is the method:
1. Inhibition of TGFa- or EGF-specific proliferation of HACAT keratinocytes:
The spontaneously immortalized aneuploid human keratinocyte HaCaT cell line, which has a transformed phenotype in vitro but remains non-tumorigenic, is grown in DMEM H21 medium supplemented with 5 % FCS and 2.5 % glutamine. 5 ml aliquots of a cell suspension adjusted to 2 x 10^5 cells/ml are seeded into 50 ml culture flasks and the cells are cultured for 2 to 3 days in DMEM medium supplemented with 5 % FCS. When 90-100 % confluence is attained cells are trypsinized, washed, suspended in KBM medium supplemented with 0.2 % dialyzed FCS (Gibco) and Ca^++ to a final concentration of 0.06 mM, and 2 x 10^4 cells are seeded into 96 wells cell culture plates. Proliferation is stimulated with recombinant human TGFa or EGF (reconstituted in 0.1 M acetic acid) at various concentrations in the presence of inhibitors. Cells are grown for two days at 37 / 5 % CO2. During the last 16 hours incorporation of ^3H-thymidine (1 µ.Ci/well) is performed. Cells are washed with ice-cold PBSdef. 3 times and trichloroacetic acid twice, solubilized in 100 µl of 0.1 N NaOH containing 1 % SDS, and radioactivity is counted. Inhibition of cell proliferation is expressed as % of the control.
For orientation: Uptake of a labelled nucleoside into DNA is a usual measure of proliferation.

The subject of experiment [2] is oxazolone-induced allergic contact dermatitis. The experiment can be described thus: Inhibition of oxazolone-induced allergic contact dermatitis in the mouse (pinnal swelling, topical application). Conditions: test 3: mouse, two applications, concentration of 0.4 %, relative to vehicle (ethanol/acetone 7:3). In kind it is in vivo. Here is the method:
3. Inhibition of oxazolone-induced allergic contact dermatitis in the mouse
Sensitization is induced by a single application of 2 % 6 oxazolone (10 µl) onto the abdominal skin of mice (8 animals per group). Hypersensitivity reaction causing pinnal swelling is elicited by a second exposure to 2 % oxazolone applied to one pinna of each animal after 8 days.
Inhibition of pinnal swelling is achieved by two topical applications of test compound (30 minutes before and after elicitation of the challenge reaction). Efficacy is determined by the difference of pinnal weights of animals treated with the drug and with the vehicle (ethanol/acetone 7:3), respectively, and expressed in % of swelling with vehicle application alone.

In general, IC50 refers to the concentration needed to halve the response being measured. Regarding `N#CC(=Cc1ccc(O)c(O)c1)C(N)=S` [AG213], the IC50 in experiment [1] is 5 to 50 µM.

Turning to `COC(=O)c1cc(OCc2cc(OC)ccc2OC)ccc1O` [Example 1, 5-(2,5-Dimethoxybenzyloxy)-2-hydroxybenzoic acid methyl ester], the IC50 in experiment [1] (Homo sapiens, HaCaT) is < 1 µM. The compound further registered an inhibition of swelling in experiment [2] of 46%.

Take `O=c1c(-c2ccc(O)cc2)coc2cc(O)cc(O)c12` [genistein]: the IC50 is 5 to 50 µM in experiment [1] (Homo sapiens, HaCaT) and 5 µM in experiment [1].

For the origin of these results see EP0497740B1, “Benzyloxyphenyl derivatives” (SANDOZ LTD., priority 1991, dated 1992).
